Series [1] has as its system BiP expression. The series can be described thus: Induction of BiP expression (immunoblot). The class given is cell-based. In general terms: Immunoblotting shows a protein as a band on a membrane.
The subject of series [2] is cytosolic Hsp90 (Hsp90α and Hsp90β). The series can be described thus: Western blot of Hsp90α/β client proteins (Raf, Akt) in HEK293 cell lysates. The series is classed as cell-based, human. The conditions noted are these: for concentration at which Hsp90α/β client proteins (Raf, Akt) are degraded/affected: HEK293, Western blot. The method, then: As previously mentioned, it has been shown that Grp94 is not essential for tissue culture cell viability.^28 In contrast, loss of functional Hsp90α or Hsp90β results in cell death. […]. […] To support these findings, western blot analyses of Hsp90α/β client proteins were performed from HEK293 cell lysates. […].
Briefly, HEK293 cells were plated in 6-well plates and treated with various concentrations of drug, GDA in DMSO (1% DMSO final concentration), or vehicle (DMSO) for 24 h. Cells were harvested in cold PBS and lysed in mammalian protein extraction reagent (MPER, Pierce) and protease inhibitors (Roche) on ice for 1 h. Lysates were clarified at 14,000 g for 10 min at 4° C. Protein concentrations were determined with the Pierce BCA assay kit per the manufacturer's instructions. Equal amounts of protein (10 μg) were electrophoresed under reducing conditions, transferred to a PVDF membrane, and immunoblotted with the corresponding specific antibodies. Membranes were incubated with an appropriate horseradish peroxidase-labeled secondary anti-body, developed with chemiluminescent substrate, and visualized.

Series [3] relates to National Cancer Institute 60-cell panel (NCI-60). The series can be described thus: NCI 60-cell panel cytotoxicity profile. The series is classed as cell-based. The text has this:
This should not dampen excitement for selective Grp94 inhibitors, as numerous studies have shown 3-dimensional tumor response to be drastically different from cell culture responses. Requisite studies are underway to understand the effect of Grp94 inhibition on 3-dimensional tumor models.

For series [4], the system named is Drosophila larvae (w1118). The series can be described thus: Drosophila larval growth on supplemented fly food. The series is classed as in vivo. The text has this:
In the absence of zygotic expression of Gp93, however, larvae display a pronounced growth defect, commensurate with disrupted gut epithelial morphology, decreased gut nutrient uptake, and marked aberrations in copper cell structure and function. As a consequence, loss of Gp93 expression is larval lethal in Drosophila. […]. […] In parallel experiments, larval gut tissue was obtained from each of the feeding conditions and gut epithelial morphology evaluated by fluorescence microscopy. […] Pharmacokinetic studies of compound absorption and metabolism may provide addition insights into this partial phenotypic behavior.
Compound effects on Drosophila larval growth were examined as described in 26. […]

The test system of series [5] is IGF-II secretion. The series can be described thus: IGF-II secretion by serum-starved C2C12 cells (ELISA). Conditions: 10 μM. The class given is cell-based, mouse. The method, then: IGF-II is a second well-defined Grp94-dependent client protein and active Grp94 is required for the secretion of IGF-11 (Ostrovsky et al., 2009).
For IGF-II ELISA, plates were coated with anti-IGF-II (MAb 792, R&D Systems) and incubated with the test cell media. The bound IGF-II was detected with a biotinylated anti-IGF-II antibody (BAF792, R&D Systems) and developed with streptavidin-HRP (R&D Systems) according to the manufacturer's recommended procedure. Optical density units were converted to concentrations of the growth factor with a standard curve generated with recombinant IGF-II (792-MG) (R&D Systems). Data were acquired in duplicate on a microtiter-plate reader (Dynatech Laboratories, Chantilly, Va.) at 450 nm.
Background: In an ELISA, binding on a coated surface is turned into a signal by an enzyme label.

Series [6] has as its system C2C12 cells. In words: C2C12 cell viability (XTT assay). The conditions noted are these: same treatment as IGF-II assay. On the technique in general: Formazan colour is commonly taken as a measure of viable cells.
Protocol: The viability of cells treated as in A was measured at each of the indicated concentrations by the XTT assay.
C2C12 cells (ATCC, Rockville, Md.) were induced to differentiate either by complete withdrawal of serum or by shifting to medium supplemented with 2% house serum. […] Cell growth was measured with the XTT formazan colorimetric assay (Roche), cells were grown in 3% serum, to limit the background of the assay.
In series [7] the test system is cytosolic Hsp90. In words: Akt stability in the BiP induction experiment (immunoblot). The series is classed as cell-based. Conditions: same concentrations as BiP induction. The method, then:
NIH-3T3 cells were treated with 25 μM of 17-AAG (AAG), 10 μM of RDC or 0-50 μM of 2. After 18 hrs cells were harvested for SDS-PAGE and analyzed by immunoblotting. Grp94, BiP and PDIA6 were detected with the monoclonal anti-KDEL antibody, AKT by rabbit anti-serum. 14-3-3 served as loading control. Numbers below BiP, Grp94, and AKT bands are the relative expression levels, determined by densitometry.
Inhibition of Hsp90 is also known to induce expression of Hsp70 and this response is useful as a diagnostic tool (FIG. 11).^61-62 A parallel response exists when Grp94 expression is ablated by RNAi, or when its activity is inhibited by RDC or 17-AAG: a transcriptional response is initiated that leads to upregulation of expression of BiP, the ER member of the Hsp70 family (Eletto et al., submitted). We therefore assessed the ability of 2 to cause BiP up-regulation, in comparison to pan-Hsp90 inhibitors. […] However, at these concentrations, the compound also destabilized Akt, a hallmark of inhibition of cytosolic Hsp90 (FIG. 12).

Series [8] deals with HeLa cells. In words: HeLa cell survival (XTT assay), GRP94-sufficient or -deficient cells. The class given is cell-based. Conditions: Homo sapiens, 48 hrs, regardless of presence of GRP94, read-out: IC50 for HeLa cell viability. The method, then:
GRP94 and BiP were detected by the anti-KDEL antibody. *, an unknown KDEL-containing band. […] Cell survival was measured by XTT assay (n=4).
Similar results were obtained with other cell lines (e.g. C2C12 in FIG. 6).

Series [9] deals with yHsp82 (yeast homolog of Hsp90β) (Saccharomyces cerevisiae, UniProt P02829). The series can be described thus: Binding affinity by fluorescent quenching, yHsp82. Conditions: read-out: Kd value for yHsp82 (yeast homolog of Hsp90β), FIG. 1B.
Series [10] concerns the target Grp94 (Canis lupus familiaris, UniProt P41148). The series can be described thus: Binding affinity by fluorescent quenching, Grp94.
Series [11] addresses T1, Grp94 (Homo sapiens, UniProt P14625).
T1 construct: endogenous in cells; host or cells: HEK293 (transfected only with pcDNA6B-Toll-Flag, the read-out client)
In words: Toll trafficking assay in Toll-transfected HEK293 cells. The conditions noted are these: Toll presentation inhibition versus Western blot of Hsp90-dependent client proteins. The class given is cell-based.

For series [12], the system named is SKBR3 (Her2 overexpressing, ER—) breast cancer cells. In words: Anti-proliferative activity, SKBR3. The class given is cell-based, human. Conditions: said to be mimicked by the client degradation value; read-out: observed IC50 in SkBR3. The method, then: (§1) As previously mentioned, it has been shown that Grp94 is not essential for tissue culture cell viability.^28 In contrast, loss of functional Hsp90α or Hsp90β results in cell death. Therefore, we investigated the anti-proliferative effects of compounds 1-5 against two breast cancer cells, MCF7 (ER+) and SKBR3 (Her2 overexpressing, ER—), and against the non-transformed HEK293 cells. […] To support these findings, western blot analyses of Hsp90α/β client proteins were performed from HEK293 cell lysates.

The test system of series [13] is MCF7 (ER+) breast cancer cells. In words: Anti-proliferative activity, MCF7. The class given is cell-based, human. Conditions: said to be mimicked by the client degradation value; read-out: observed IC50 in MCF7. The method, then:
as §1

Series [14] deals with IGF-II secretion. Conditions: serum-starved C2C12 myoblast cells; cited from earlier work.
The mark [15] stands for this setting: read-out: Kd value for Grp94, fluorescent quenching, FIG. 1B.
[16] abbreviates: read-out: kd for binding to the Hsp90 isoform GRP94.

The values that follow come from patent publication US8685966B2, “GRP94 inhibitors” (University of Kansas, priority 2011, dated 2014).

Entries after “also recorded” stand apart in the source; their conditions may differ. Read-outs that look alike come from different tables or passages of the source.

Grp94 (Canis lupus familiaris, UniProt P41148), sequence (P41148 22-804): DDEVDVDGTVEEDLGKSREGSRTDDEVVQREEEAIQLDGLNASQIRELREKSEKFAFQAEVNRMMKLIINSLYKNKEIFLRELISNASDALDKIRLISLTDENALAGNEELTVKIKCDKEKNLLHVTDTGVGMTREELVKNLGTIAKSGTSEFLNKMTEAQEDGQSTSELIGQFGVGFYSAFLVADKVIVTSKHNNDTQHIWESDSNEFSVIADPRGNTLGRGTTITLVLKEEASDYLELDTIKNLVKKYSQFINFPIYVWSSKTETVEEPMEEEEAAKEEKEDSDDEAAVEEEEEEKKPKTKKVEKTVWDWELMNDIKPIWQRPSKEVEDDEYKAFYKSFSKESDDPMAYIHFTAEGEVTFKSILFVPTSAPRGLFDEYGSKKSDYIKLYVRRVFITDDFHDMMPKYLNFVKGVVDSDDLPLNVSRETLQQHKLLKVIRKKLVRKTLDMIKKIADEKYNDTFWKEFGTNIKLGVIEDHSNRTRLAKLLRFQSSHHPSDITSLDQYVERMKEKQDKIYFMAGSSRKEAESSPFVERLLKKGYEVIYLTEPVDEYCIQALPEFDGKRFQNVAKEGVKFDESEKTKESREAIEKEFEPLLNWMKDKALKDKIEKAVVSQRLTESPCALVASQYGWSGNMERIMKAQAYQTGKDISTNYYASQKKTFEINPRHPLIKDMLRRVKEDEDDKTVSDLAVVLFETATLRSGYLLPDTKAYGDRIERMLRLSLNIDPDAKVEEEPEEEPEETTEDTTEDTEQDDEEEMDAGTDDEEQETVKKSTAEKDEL
yHsp82 (yeast homolog of Hsp90β), sequence (P02829 whole entry): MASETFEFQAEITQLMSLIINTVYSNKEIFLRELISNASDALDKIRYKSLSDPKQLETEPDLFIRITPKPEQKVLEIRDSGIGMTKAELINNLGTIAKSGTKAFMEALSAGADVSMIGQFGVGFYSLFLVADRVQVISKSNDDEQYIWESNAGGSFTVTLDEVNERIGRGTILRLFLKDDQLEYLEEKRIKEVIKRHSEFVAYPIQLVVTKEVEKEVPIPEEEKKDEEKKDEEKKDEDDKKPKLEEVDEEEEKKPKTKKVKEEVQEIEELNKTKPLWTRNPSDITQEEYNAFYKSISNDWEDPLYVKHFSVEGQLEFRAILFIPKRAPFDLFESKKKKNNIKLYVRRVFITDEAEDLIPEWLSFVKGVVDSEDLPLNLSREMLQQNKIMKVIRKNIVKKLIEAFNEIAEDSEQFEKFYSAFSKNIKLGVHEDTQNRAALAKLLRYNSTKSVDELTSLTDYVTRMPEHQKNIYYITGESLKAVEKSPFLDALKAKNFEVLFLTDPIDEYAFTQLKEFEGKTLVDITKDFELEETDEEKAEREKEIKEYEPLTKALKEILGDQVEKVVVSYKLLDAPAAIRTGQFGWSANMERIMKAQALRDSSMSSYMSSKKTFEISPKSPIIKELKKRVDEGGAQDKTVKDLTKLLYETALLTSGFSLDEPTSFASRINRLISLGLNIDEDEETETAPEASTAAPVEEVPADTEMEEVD
T1 sequence (P14625 22-803): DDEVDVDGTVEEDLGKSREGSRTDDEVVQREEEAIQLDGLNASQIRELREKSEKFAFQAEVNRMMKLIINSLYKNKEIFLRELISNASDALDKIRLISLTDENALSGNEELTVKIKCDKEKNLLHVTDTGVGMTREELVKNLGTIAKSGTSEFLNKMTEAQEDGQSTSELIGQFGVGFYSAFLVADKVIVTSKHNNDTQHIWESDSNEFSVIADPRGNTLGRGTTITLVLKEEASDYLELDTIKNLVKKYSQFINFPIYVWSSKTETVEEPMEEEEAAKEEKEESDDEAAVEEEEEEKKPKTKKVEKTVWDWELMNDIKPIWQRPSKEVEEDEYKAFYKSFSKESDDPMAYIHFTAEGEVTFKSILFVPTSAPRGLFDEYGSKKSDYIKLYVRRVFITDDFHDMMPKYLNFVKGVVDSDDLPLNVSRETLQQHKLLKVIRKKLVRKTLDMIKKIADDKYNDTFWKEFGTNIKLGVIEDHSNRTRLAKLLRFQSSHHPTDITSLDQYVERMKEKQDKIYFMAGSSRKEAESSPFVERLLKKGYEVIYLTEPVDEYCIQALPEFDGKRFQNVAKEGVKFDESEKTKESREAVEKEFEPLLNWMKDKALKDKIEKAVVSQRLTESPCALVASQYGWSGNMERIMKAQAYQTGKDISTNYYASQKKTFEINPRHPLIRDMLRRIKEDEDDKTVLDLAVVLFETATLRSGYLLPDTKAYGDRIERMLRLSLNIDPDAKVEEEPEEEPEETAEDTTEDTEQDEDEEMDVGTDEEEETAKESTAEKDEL

Regarding `COC(=O)c1c(O)cc(O)c(Cl)c1CCc1nccn1Cc1ccccc1` [Compound 2, Methyl 2-(2-(1-benzyl-1H-imidazol-2-yl)ethyl)-3-chloro-4,6-dihydroxybenzoate], the BiP up-regulation result in [1] (0-75 μM, C2C12 cells) is on record as “did not lead to up-regulation of BiP”. The “concentration inducing BiP expression” value in series [1] (resembles RDC) is “above 200 μM”. For the same compound, in series [2] (HEK293, 100 μM), the HSP70 induction result was “induction of HSP70”. The “concentration at which Hsp90α/β client proteins (Raf, Akt) are degraded/affected” value in [2] amounted to 100 µM. The “cytotoxicity across all 60 transformed cell lines” value in series [3] was “negligible cytotoxicity”. Further, in series [4] (250 μg/ml to 1 mg/ml in fly food, 96 hours), the Drosophila larval growth result is on record as “dramatic growth phenotype; also recorded: stunted the growth of Drosophila larvae in a dose-dependent manner”. For the same compound, in series [4] (fluorescence microscopy of gut tissue, data not shown), the “larval gut copper cell structure” value is recorded as “No grossly discernible effects on copper cell structure”. In addition, the “reduction of IGF-II secretion” value in series [5] was “Approximately 60%”. The “effect on cell viability” value in [6] is listed as “little effect on cell viability”. Further, in [7], the “concentration at which Akt is destabilized” value is recorded as “above 200 μM”.

As for `C[C@@H]1C[C@H]2O[C@@H]2/C=C\C=C\C(=O)Cc2c(Cl)c(O)cc(O)c2C(=O)O1` [RDC, radicicol], in [1] (10 μM), the BiP up-regulation result is on record as “did cause BiP up-regulation”. Moreover, the IC50 (usually the concentration that inhibits the measured activity by half) in series [8] was 8 µM.

As for `COC(=O)c1c(O)cc(O)c(Cl)c1CCC(=O)NC1=CC(=O)C(OC)=CC1=O` [Radamide], the dissociation constant Kd (commonly the constant that tells how readily two partners part at equilibrium) in [9] was found to be 870 ± 140 nM; in [10] (setting [15]), 520 ± 130 nM; in [10] (setting [16]), 254 nM. For the same compound, the “fold higher binding affinity for full-length Grp94 than yHsp82” value in [10] (full-length Grp94 vs yHsp82) is “approximately 2 fold”.

Turning to cis-radamide [cRDA], in series [11], the “selectivity for GRP94 versus cytoplasmic Hsp90 α/β” value was “minimal selectivity”. Also, the values for the Kd in series [9], in series [10] (setting [15]) and in [10] (setting [16]) were 240 ± 120 nM, 110 ± 20 nM and 110 nM, respectively. The “concentration at which Hsp90α/β client proteins (Raf, Akt) are degraded/affected” value in series [2] was ~1 µM. Also, the IC50 in series [12] and in series [13] was ~1000 nM in each case.

On to `C=CCNC1=C2C[C@@H](C)C[C@H](OC)[C@H](O)[C@@H](C)/C=C(\C)[C@H](OC(N)=O)[C@@H](OC)/C=C\C=C(/C)C(=O)NC(=CC1=O)C2=O` [Compound 17-AAG, 17-(allylamino)-17-demethoxygeldanamycin], for which the BiP up-regulation entry in series [1] (25 μM, data not shown) is given as “did cause BiP up-regulation”. The “secretion of IGF-II (previously demonstrated)” value in series [14] is “prevent the secretion of IGF-II”.
